The source of these data is article PMC3912015, “Synthetic Multivalent Antifungal Peptides Effective against Fungi” (PLoS ONE, 2014).

One series relates to C. albicans ATCC24433. In words: microbe, parasite or virus in culture. The format is cell-based. As to conditions: ATCC24433, 48 h. Put shortly:
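Broth-microdilution MIC. Medium: SD broth at 1/6 strength. Start OD600 ∼0.08, peptide 0.4–22 µM, 37°C, 24/48 h. Endpoint: complete inhibition by visual and OD600 read, triplicate.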

The next series concerns F. solani DF1500. In words: microbe, parasite or virus in culture. Format: cell-based. The settings on record: 48 h.
Series [1] is classed as biochemical. As to the method: Small unilamellar vesicles (SUVs) were prepared using PC/PE/PI or PS lipids (5∶2.5∶2.5) containing 15 wt% ergosterol or PC/Cholesterol (10∶1). For the preparation of PC/PE/PI or PS/Erg SUV, the lipids were dissolved in chloroform/methanol (2∶1, v/v) in a glass tube. Ergosterol was dissolved in same solvent and added to lipid mixture to make final ergosterol content of 15 wt%. The Lipid-ergosterol mixture was dried using nitrogen gas to form lipid layer. The film was hydrated in a buffer containing 20 mM PBS (pH 7), vortexed and sonicated. Each cycle of sonication (5 sec, 40°C) was followed by freezing in liquid nitrogen and thawing on a water bath kept at 37°C. The procedure was repeated 5–6 times until an optically clear dispersion appeared. The SUV was divided into two parts. To the first part 50 mM calcein was added and incubated for 1 h. The excess calcein was removed by injecting 100 µL of the calcien-loaded SUV’s into a Ultrahydrogel™ 250 (7.8 mm × 300 mm) column equilibrated with 20 mM PBS (pH 7.0) and eluted isochratically at a flow rate of 1 mL/min for 1.5 column volumes. The calcein-loaded liposomes were mixed with calcein-free liposome (1∶1) to adjust final liposome concentration. Peptide concentration was added to obtain 1∶30 or 1∶15 peptide:liposome ratio. Changes in the fluorescence signal after addition of peptide or Triton X-100 was measured on a PTI spectrofluorometer, using an excitation wavelength of 480 nm and emission wavelength of 512 nm. The Percentage calcein released at each time point was calculated using the equation, [drawing 1]
Where A0 is the observed fluorescence intensity upon addition of peptides, Amin is the average intensity at the baseline (before peptide addition), Amax is the average intensity at the saturation phase after adding 1% Triton X-100. Similar protocol was followed for the preparation of PC/Cholesterol SUVs.

Values after ≈ are worked out from the molar mass of the structure shown. Read-outs that look alike come from different tables or passages of the source. Bridge positions count the residues as written; N and C are the ends. Peptide text beside a SMILES is read from it. I, II: the chains in the order shown.

As for `CC(C)[C@H](NC(=O)[C@H](CCCCN)NC(=O)[C@H](CCCNC(=N)N)NC(=O)CNC(=O)[C@@H](N)CCCNC(=N)N)C(=O)N[C@H](C(=O)N[C@@H](CCCNC(=N)N)C(=O)N[C@@H](CCCNC(=N)N)C(=O)NCCCC[C@H](NC(=O)[C@H](CCCNC(=N)N)NC(=O)[C@H](CCCNC(=N)N)NC(=O)[C@@H](NC(=O)[C@@H](NC(=O)[C@H](CCCCN)NC(=O)[C@H](CCCNC(=N)N)NC(=O)CNC(=O)[C@@H](N)CCCNC(=N)N)C(C)C)C(C)C)C(=O)NCCCC[C@H](NC(=O)[C@H](CCCCNC(=O)[C@H](CCCNC(=N)N)NC(=O)[C@H](CCCNC(=N)N)NC(=O)[C@@H](NC(=O)[C@@H](NC(=O)[C@H](CCCCN)NC(=O)[C@H](CCCNC(=N)N)NC(=O)CNC(=O)[C@@H](N)CCCNC(=N)N)C(C)C)C(C)C)NC(=O)[C@H](CCCNC(=N)N)NC(=O)[C@H](CCCNC(=N)N)NC(=O)[C@@H](NC(=O)[C@@H](NC(=O)[C@H](CCCCN)NC(=O)[C@H](CCCNC(=N)N)NC(=O)CNC(=O)[C@@H](N)CCCNC(=N)N)C(C)C)C(C)C)C(=O)N[C@@H](CCCCN)C(=O)O)C(C)C` [B4010] (I: H-RGRKVVRRKKK-OH / II: H-RGRKVVRRK / III: H-RGRKVVRR / IV: H-RGRKVVRR; amide I:9-IV:C, I:10-II:C, II:9-III:C; N-terminus and C-terminus assumed), the MIC in the series on C. albicans ATCC24433 (read-out: MIC), in the series with C. albicans ATCC24433 (read-out: MIC in µM against Ca 24433) and in the series on F. solani DF1500 was 1.4 µM (≈ 6.39 µg/mL) throughout. Besides, the “% Calcein released from PC/PE/PS/Erg” value in series [1] is on record as approximately 68%. Also, the “dye (calcein) release” value in series [1] was approximately 46%.
